Test results from ChEMBL document CHEMBL3745645, “Synthesis, in vitro antitumor activity, dihydrofolate reductase inhibition, DNA intercalation and structure-activity relationship studies of 1,3,5-triazine analogues” (Bioorg Med Chem Lett, 2016).
The source made the active and inactive calls. The rule behind the calls is not given here.

Tests used:
Format in all cases: functional
[1] = Cytotoxicity against human Caki1 cells at 10 uM after 48 hrs by SRB assay; conditions: CAKI-1, 48 h, read-out: GI
RXF 393 = experiment: Cytotoxicity against human RXF393 cells at 10 uM after 48 hrs by SRB assay
SN12C = experiment: Cytotoxicity against human SN12C cells at 10 uM after 48 hrs by SRB assay; conditions: read-out: GI
TK-10 = experiment: Cytotoxicity against human TK10 cells at 10 uM after 48 hrs by SRB assay
[2] = Cytotoxicity against human UO31 cells at 10 uM after 48 hrs by SRB assay; conditions: UO-31, 48 h, read-out: GI
[3] = Cytotoxicity against human PC3 cells at 10 uM after 48 hrs by SRB assay; conditions: PC-3, 48 h, read-out: GI
DU-145 = experiment: Cytotoxicity against human DU145 cells at 10 uM after 48 hrs by SRB assay
MCF7 = experiment: Cytotoxicity against human MCF7 cells at 10 uM after 48 hrs by SRB assay; conditions: MCF7, 48 h, read-out: GI
MDA-MB-231 = experiment: Cytotoxicity against human MDA-MB-231 cells at 10 uM after 48 hrs by SRB assay; conditions: MDA-MB-231, 48 h, read-out: GI
[4] = Cytotoxicity against human Hs 578T cells at 10 uM after 48 hrs by SRB assay; conditions: read-out: GI
[5] = Cytotoxicity against human BT549 cells at 10 uM after 48 hrs by SRB assay; conditions: BT-549, 48 h, read-out: GI
T47D = experiment: Cytotoxicity against human T47D cells at 10 uM after 48 hrs by SRB assay; conditions: read-out: GI
MDA-MB-468 = experiment: Cytotoxicity against human MDA-MB-468 cells at 10 uM after 48 hrs by SRB assay; conditions: MDA-MB-468, 48 h, read-out: GI
CCRF-CEM = experiment: Cytotoxicity against human CCRF-CEM cells at 10 uM after 48 hrs by SRB assay; conditions: read-out: GI
HL-60(TB) = experiment: Cytotoxicity against human HL-60(TB) cells at 10 uM after 48 hrs by SRB assay
K562 = experiment: Cytotoxicity against human K562 cells at 10 uM after 48 hrs by SRB assay; conditions: K562, 48 h, read-out: GI
[6] = Cytotoxicity against human MOLT4 cells at 10 uM after 48 hrs by SRB assay; conditions: MOLT-4, 48 h, read-out: GI
[7] = Cytotoxicity against human RPMI8226 cells at 10 uM after 48 hrs by SRB assay; conditions: RPMI-8226, 48 h, read-out: GI
SR = experiment: Cytotoxicity against human SR cells at 10 uM after 48 hrs by SRB assay; conditions: read-out: GI
A549 = experiment: Cytotoxicity against human A549 cells at 10 uM after 48 hrs by SRB assay; conditions: A549, 48 h, read-out: GI
[8] = Cytotoxicity against human HOP62 cells at 10 uM after 48 hrs by SRB assay; conditions: HOP-62, 48 h, read-out: GI
[9] = Cytotoxicity against human HOP92 cells at 10 uM after 48 hrs by SRB assay; conditions: HOP-92, 48 h, read-out: GI
NCI-H226 = experiment: Cytotoxicity against human NCI-H226 cells at 10 uM after 48 hrs by SRB assay; conditions: NCI-H226, 48 h, read-out: GI
NCI-H460 = experiment: Cytotoxicity against human NCI-H460 cells at 10 uM after 48 hrs by SRB assay
NCI-H522 = experiment: Cytotoxicity against human NCI-H522 cells at 10 uM after 48 hrs by SRB assay; conditions: NCI-H522, 48 h, read-out: GI
[10] = Cytotoxicity against human COLO205 cells at 10 uM after 48 hrs by SRB assay; conditions: COLO 205, 48 h, read-out: GI
HCC 2998 = experiment: Cytotoxicity against human HCC2998 cells at 10 uM after 48 hrs by SRB assay
[11] = Cytotoxicity against human HCT116 cells at 10 uM after 48 hrs by SRB assay; conditions: HCT-116, 48 h, read-out: GI
[12] = Cytotoxicity against human HCT15 cells at 10 uM after 48 hrs by SRB assay; conditions: HCT-15, 48 h, read-out: GI
HT-29 = experiment: Cytotoxicity against human HT-29 cells at 10 uM after 48 hrs by SRB assay; conditions: HT-29, 48 h, read-out: GI
KM12 = experiment: Cytotoxicity against human KM12 cells at 10 uM after 48 hrs by SRB assay
[13] = Cytotoxicity against human SW620 cells at 10 uM after 48 hrs by SRB assay; conditions: SW-620, 48 h, read-out: GI
[14] = Cytotoxicity against human SF268 cells at 10 uM after 48 hrs by SRB assay; conditions: SF-268, 48 h, read-out: GI
[15] = Cytotoxicity against human SF295 cells at 10 uM after 48 hrs by SRB assay; conditions: SF-295, 48 h, read-out: GI
[16] = Cytotoxicity against human SF539 cells at 10 uM after 48 hrs by SRB assay; conditions: SF-539, 48 h, read-out: GI
[17] = Cytotoxicity against human SNB19 cells at 10 uM after 48 hrs by SRB assay; conditions: SNB-19, 48 h, read-out: GI
[18] = Cytotoxicity against human SNB75 cells at 10 uM after 48 hrs by SRB assay; conditions: SNB-75, 48 h, read-out: GI
U-251 = experiment: Cytotoxicity against human U251 cells at 10 uM after 48 hrs by SRB assay
[19] = Cytotoxicity against human LOXIMVI cells at 10 uM after 48 hrs by SRB assay; conditions: LOX IMVI, read-out: GI
Malme-3M = experiment: Cytotoxicity against human MALME-3M cells at 10 uM after 48 hrs by SRB assay
M14 = experiment: Cytotoxicity against human M14 cells at 10 uM after 48 hrs by SRB assay
MDA-MB-435 = experiment: Cytotoxicity against human MDA-MB-435 cells at 10 uM after 48 hrs by SRB assay; conditions: MDA-MB-435, 48 h, read-out: GI
SK-MEL-2 = experiment: Cytotoxicity against human SK-MEL-2 cells at 10 uM after 48 hrs by SRB assay
SK-MEL-28 = experiment: Cytotoxicity against human SK-MEL-28 cells at 10 uM after 48 hrs by SRB assay
SK-MEL-5 = experiment: Cytotoxicity against human SK-MEL-5 cells at 10 uM after 48 hrs by SRB assay; conditions: SK-MEL-5, 48 h, read-out: GI
[20] = Cytotoxicity against human UACC257 cells at 10 uM after 48 hrs by SRB assay; conditions: UACC-257, 48 h, read-out: GI
[21] = Cytotoxicity against human UACC62 cells at 10 uM after 48 hrs by SRB assay; conditions: UACC-62, 48 h, read-out: GI
[22] = Cytotoxicity against human IGROV1 cells at 10 uM after 48 hrs by SRB assay; conditions: IGROV-1, 48 h, read-out: GI
[23] = Cytotoxicity against human OVCAR3 cells at 10 uM after 48 hrs by SRB assay; conditions: OVCAR-3, 48 h, read-out: GI
[24] = Cytotoxicity against human OVCAR4 cells at 10 uM after 48 hrs by SRB assay; conditions: OVCAR-4, 48 h, read-out: GI
[25] = Cytotoxicity against human OVCAR5 cells at 10 uM after 48 hrs by SRB assay; conditions: OVCAR-5, 48 h, read-out: GI
[26] = Cytotoxicity against human OVCAR8 cells at 10 uM after 48 hrs by SRB assay; conditions: OVCAR-8, 48 h, read-out: GI
[27] = Cytotoxicity against human NCI-ADR-RES cells at 10 uM after 48 hrs by SRB assay; conditions: read-out: GI
SK-OV-3 = experiment: Cytotoxicity against human SKOV3 cells at 10 uM after 48 hrs by SRB assay
786-0 = experiment: Cytotoxicity against human 786-0 cells at 10 uM after 48 hrs by SRB assay; conditions: 786-0, 48 h, read-out: GI
A498 = experiment: Cytotoxicity against human A498 cells at 10 uM after 48 hrs by SRB assay; conditions: A498, 48 h, read-out: GI
ACHN = experiment: Cytotoxicity against human ACHN cells at 10 uM after 48 hrs by SRB assay; conditions: read-out: GI

Which results are given for `Cc1nc2cc(Nc3nc(Nc4ccc(F)cc4)nc(Nc4ccc(F)cc4)n3)ccc2n1Cc1ccccc1`?
inhibition of growth at 10 µM [1]: 10.1%; growth inhibition (GI) (RXF 393): inactive; inhibition of growth at 10 µM (SN12C): 5.75%; growth inhibition (GI) (TK-10): inactive; inhibition of growth at 10 µM [2]: 39.3%; inhibition of growth at 10 µM [3]: 23.2%; growth inhibition (GI) (DU-145): inactive; inhibition of growth at 10 µM (MCF7): 11.5%; inhibition of growth at 10 µM (MDA-MB-231): 24.5%; inhibition of growth at 10 µM [4]: 10.4%; inhibition of growth at 10 µM [5]: 5.26%; inhibition of growth at 10 µM (T47D): 10.7%; inhibition of growth at 10 µM (MDA-MB-468): 9.45%; inhibition of growth at 10 µM (CCRF-CEM): 10.6%; growth inhibition (GI) (HL-60(TB)): inactive; inhibition of growth at 10 µM (K562): 18.6%; inhibition of growth at 10 µM [6]: 15.2%; inhibition of growth at 10 µM [7]: 14.3%; inhibition of growth at 10 µM (SR): 18.6%; inhibition of growth at 10 µM (A549): 8.48%; inhibition of growth at 10 µM [8]: 8.91%; inhibition of growth at 10 µM [9]: 37.6%; inhibition of growth at 10 µM (NCI-H226): 13.8%; growth inhibition (GI) (NCI-H460): inactive; inhibition of growth at 10 µM (NCI-H522): 14.2%; inhibition of growth at 10 µM [10]: 2.84%; growth inhibition (GI) (HCC 2998): inactive; inhibition of growth at 10 µM [11]: 12.2%; inhibition of growth at 10 µM [12]: 10.8%; inhibition of growth at 10 µM (HT-29): 1.3%; growth inhibition (GI) (KM12): inactive; inhibition of growth at 10 µM [13]: 3.96%; inhibition of growth at 10 µM [14]: 3.68%; inhibition of growth at 10 µM [15]: 8.21%; inhibition of growth at 10 µM [16]: 10.4%; inhibition of growth at 10 µM [17]: 3.99%; inhibition of growth at 10 µM [18]: 24.8%; growth inhibition (GI) (U-251): inactive; inhibition of growth at 10 µM [19]: 7.8%; growth inhibition (GI) (Malme-3M): inactive; growth inhibition (GI) (M14): inactive; inhibition of growth at 10 µM (MDA-MB-435): 0.94%; growth inhibition (GI) (SK-MEL-2): inactive; growth inhibition (GI) (SK-MEL-28): inactive; inhibition of growth at 10 µM (SK-MEL-5): 1.09%; inhibition of growth at 10 µM [20]: 3.11%; inhibition of growth at 10 µM [21]: 10.2%; inhibition of growth at 10 µM [22]: 16.9%; inhibition of growth at 10 µM [23]: 4.79%; inhibition of growth at 10 µM [24]: 14.4%; inhibition of growth at 10 µM [25]: 4.24%; inhibition of growth at 10 µM [26]: 9.21%; inhibition of growth at 10 µM [27]: 10.6%; growth inhibition (GI) (SK-OV-3): inactive; inhibition of growth at 10 µM (786-0): 13.2%; inhibition of growth at 10 µM (A498): 21.9%; inhibition of growth at 10 µM (ACHN): 7.88%
